# Reference: patent publication US20240327359A1, “3-ISOXAZOLIDINONE COMPOUND, PREPARATION METHOD, HERBICIDAL COMPOSITION AND APPLICATION THEREOF” (QINGDAO KINGAGROOT CHEMICAL COMPOUND CO., LTD., priority 2021, published 2024)
# Legend:
# Format in all cases: in vivo
# Abutilon theophrasti = test: Weeding effect in post-emergence stage; conditions: 720 g a.i./ha, 3 weeks after application
# Text: (§1) The activity level criteria for plant damage (i.e., growth control rate) are as follows:
# (§2) The above growth control rates are fresh weight control rates.
# (§3) Monocotyledonous and dicotyledonous weed seeds (Descurainia sophia, Capsella bursa-pastoris, Abutilon theophrasti, Galium aparine, Stellaria media, Lithospermum arvense, Rorippa indica, Alopecurus aequalis, Alopecurus japonicus, Eleusine indica, Beckmannia syzigachne, Sclerochloa dura, Phleum paniculatum, Veronica didyma, Bromus japonicus, Aegilops tauschii, Phalaris arundinacea, Amaranthus retroflexus, Chenopodiaceae, Commelina communis, Sonchus arvensis, Convolvulus arvensis, Cirsium setosum, Solanumnigrum, Acalypha australis, Digitaria sanguinalis, Echinochloa crusgalli, Setaria viridis, Setaria glauca, Leptochloa chinensis, Monochoria vaginalis, Sagittaria trifolia, Scirpus juncoides, Cyperus rotundus, Cyperus iria, Cyperus difformis, Fimbristylis, Portulaca oleracea, Xanthium sibiricum, Pharbitis nil, Conyza Canadensis, etc.) and major crop seeds (wheat, corn, rice, soybean, cotton, oilseed rape, millet, sorghum, potato, sesame, ricinus, etc.) were placed in plastic pots filled with soil, then covered with 0.5-2 cm of soil, allowed to grow in a good greenhouse environment. Two weeks after sowing, the test plants were treated in the 2-3 leaf stage. The tested compounds of the present invention were respectively dissolved in acetone, then added with Tween 80 and 1.5 liter/ha of emulsifiable concentrate of methyl oleate as synergist, diluted with a certain amount of water to obtain a solution of a certain concentration, and sprayed by a spray tower onto the plants. After the application, the plants were cultured for 3 weeks in the greenhouse, and then the experimental results of the weeding were recorded. The doses of the used compounds were 45, 90, 180, 360, 720 g a.i./ha, and the averages were obtained from three replicates.
# Alopecurus japonicus = test: Weeding effect in post-emergence stage; conditions: 720 g a.i./ha, 3 weeks after application
# Text: as §1, §2, §3
# Digitaria sanguinalis = test: Weeding effect in post-emergence stage; conditions: 720 g a.i./ha, 3 weeks after application
# Text: as §1, §2, §3
# Leptochloa chinensis [1] = test: Weeding effect in post-emergence stage; conditions: 720 g a.i./ha, 3 weeks after application
# Text: as §1, §2, §3
# Descurainia sophia = test: Weeding effect in pre-emergence stage; conditions: 2 weeks
# Text: as §1, §2
# (§4) Monocotyledonous and dicotyledonous weed seeds (Descurainia sophia, Capsella bursa-pastoris, Abutilon theophrasti, Galium aparine, Stellaria media, Lithospermum arvense, Rorippa indica, Alopecurus aequalis, Alopecurus japonicus, Eleusine indica, Beckmannia syzigachne, Sclerochloa dura, Phleum paniculatum, Veronica didyma, Bromus japonicus, Aegilops tauschii, Phalaris arundinacea, Amaranthus retroflexus, Chenopodiaceae, Commelina communis, Sonchus arvensis, Convolvulus arvensis, Cirsium setosum, Solanumnigrum, Acalypha australis, Digitaria sanguinalis, Echinochloa crusgalli, Setaria viridis, Setaria glauca, Leptochloa chinensis, Monochoria vaginalis, Sagittaria trifolia, Scirpus juncoides, Cyperus rotundus, Cyperus iria, Cyperus difformis, Fimbristylis, Portulaca oleracea, Xanthium sibiricum, Pharbitis nil, Conyza Canadensis, etc.) and major crop seeds (wheat, corn, rice, soybean, cotton, oilseed rape, millet, sorghum, potato, sesame, ricinus, etc.) were placed in plastic pots filled with soil, then covered with 0.5-2 cm of soil, allowed to grow in a good greenhouse environment. The test plants were treated on the day of sowing. The tested compounds of the present invention were respectively dissolved in acetone, then added with Tween 80, diluted with a certain amount of water to obtain a solution of a certain concentration, and sprayed by a spray tower onto the plants. After the application, the plants were cultured for 2 weeks in the greenhouse, and then the experimental results of the weeding were recorded. The doses of the used compounds were 3, 6, 12, 24, 48 g ai./mu (1 mu=1/15 ha), and the averages were obtained from three replicates.
# Echinochloa crusgalli = test: Weeding effect in pre-emergence stage; conditions: 2 weeks
# Text: as §1, §2, §4
# Leptochloa chinensis [2] = test: Weeding effect in pre-emergence stage; conditions: 2 weeks
# Text: as §1, §2, §4
# Lolium perenne = test: Weeding effect in pre-emergence stage; conditions: 2 weeks
# Text: as §1, §2, §4
# Veronica didyma = test: Weeding effect in pre-emergence stage; conditions: 2 weeks
# Text: as §1, §2, §4
# weeds = test: Activity test of the compositions, soil sealing treatment; conditions: Echinochloa crus-galli, 504 h, Echinochloa crusgalli, soil treatment (S), 21 days, read-out: Control effect (%) of B applied alone (B)
# Experimental: (§5) The desired active ingredient B was purchased from a reagent company or synthesized by a known method. The technical materials were all dissolved in acetone and diluted with an aqueous solution containing 0.10% emulsifier Tween-80 which were to be used immediately after dilution.
# Weeds are cultivated in a controllable sunlight greenhouse at 20 to 30° C., in natural light, and with relative humidity of 57% to 72%. […] The test soil was filled quantitatively to ¾ of the pots and then watered from the bottom of the pots to completely wet the soil to saturation. The test weed seeds were accelerated to just germinate, and then evenly and quantitatively sowed on the surface, then covered with 0.5-1 cm soil according to the seed size, and ready for use 72 hours after sowing.
# (§6) Each treatment was repeated 4 times. Four pots with 20 weed seeds per pot were treated each time.
# (§7) The well-sowed test materials were evenly placed on a platform with an area of 0.5 m^2, and solution of agents was sprayed on the soil by the 3WP-2000-type walking spray tower at a dosage of 450 kg/ha and at a spray pressure of 0.3 MPa. After all the solution was sprayed, the valve was closed. After 30 seconds, the door of the spray tower was opened, and the nutritional bowl was taken out. Then the valve was opened, and the spray tube was cleaned by spraying 50 ml of water.
# (§8) A method for investigating absolute numbers was employed. Whole seedlings of survival weeds were cut off with a blade along the soil surface, and the fresh weight of the weeds was weighed with an analytical balance. For dead weeds, the fresh weight thereof was zero.
# (§9) The investigation was performed 21 days after the treatment for only once in total.
# Cirsium setosum = test: Activity test of the compositions, post-emergence treatment by foliage spray; conditions: foliage (F)
# Experimental: as §5
# Weeds were cultivated by a pot culture method. […] Weed seeds with plump and uniform grains were selected, soaked in lukewarm water at 25° C. for 6 hours, and germinated in a 28° C. biochemical incubator (in darkness). The weed seeds that had just germinated were evenly placed on the surface of the soil and then covered with 0.5-1 cm soil according to the sizes of seeds.
# The culture was carried out in a controllable sunlight greenhouse at 20 to 30° C., in natural light, and with relative humidity of 57% to 72%.
# as §6
# The agents were used for only once in total in the experiment. In the stage of 1.5-2 leaves, the weeds were thinned out to maintain 10 weeds per pot. Ten weeds were kept in each treatment, then continued to be cultured until Echinochloa crus-galli var. zelayensis reached the stage of 2-3 leaves, Cirsium setosum reached the stage of 5-6 leaves, Galium aparine reached the stage of 3-4 whorl leaves, Amaranthus retroflexus reached the stage of 3-5 leaves, Echinochloa crusgalli, Lolium multiflorum and Digitaria sanguinalis reached the stage of 3 leaves with one leaf not fully expanding for further treatment.
# as §7, with “well-cultured” for “well-sowed”, “stems and leaves thereof” for “soil”, “water. After the treatment, the weeds were routinely cultured in a greenhouse.” for “water.”
# as §8, §9
compound,measurement,setting,value
"CC1(C)CON(Cc2ccccc2Cl)C1=O [Control compound B, clomazone]","weeding effect in post-emergence stage, activity level (growth control rate)",Abutilon theophrasti,3 (Level 3: growth control rate is greater than or equal to 40% and less than 60%)
same,"weeding effect in post-emergence stage, activity level (growth control rate)",Alopecurus japonicus,4 (Level 4: growth control rate is greater than or equal to 60% and less than 85%)
same,"weeding effect in post-emergence stage, activity level (growth control rate)",Digitaria sanguinalis,3 (Level 3: growth control rate is greater than or equal to 40% and less than 60%)
same,"weeding effect in post-emergence stage, activity level (growth control rate)",Leptochloa chinensis [1],4 (Level 4: growth control rate is greater than or equal to 60% and less than 85%)
same,"weeding effect in pre-emergence stage, activity level (growth control rate)",Descurainia sophia; 3 g a.i./mu,2 (Level 2: growth control rate is greater than or equal to 15% and less than 30%)
same,"weeding effect in pre-emergence stage, activity level (growth control rate)",Descurainia sophia; 6 g a.i./mu,3 (Level 3: growth control rate is greater than or equal to 30% and less than 40%)
same,"weeding effect in pre-emergence stage, activity level (growth control rate)",Descurainia sophia; 12 g a.i./mu,7 (Level 7: growth control rate is greater than or equal to 70% and less than 80%)
same,"weeding effect in pre-emergence stage, activity level (growth control rate)",Descurainia sophia; 24 g a.i./mu,7 (Level 7: growth control rate is greater than or equal to 70% and less than 80%)
same,"weeding effect in pre-emergence stage, activity level (growth control rate)",Echinochloa crusgalli; 3 g a.i./mu,8 (Level 8: growth control rate is greater than or equal to 80% and less than 100%)
same,"weeding effect in pre-emergence stage, activity level (growth control rate)",Echinochloa crusgalli; 6 g a.i./mu,9
same,"weeding effect in pre-emergence stage, activity level (growth control rate)",Echinochloa crusgalli; 12 g a.i./mu,9
same,"weeding effect in pre-emergence stage, activity level (growth control rate)",Echinochloa crusgalli; 24 g a.i./mu,9
same,"weeding effect in pre-emergence stage, activity level (growth control rate)",Leptochloa chinensis [2]; 3 g a.i./mu,0
same,"weeding effect in pre-emergence stage, activity level (growth control rate)",Leptochloa chinensis [2]; 6 g a.i./mu,4 (Level 4: growth control rate is greater than or equal to 40% and less than 50%)
same,"weeding effect in pre-emergence stage, activity level (growth control rate)",Leptochloa chinensis [2]; 12 g a.i./mu,9
same,"weeding effect in pre-emergence stage, activity level (growth control rate)",Leptochloa chinensis [2]; 24 g a.i./mu,9
same,"weeding effect in pre-emergence stage, activity level (growth control rate)",Lolium perenne; 6 g a.i./mu,1 (Level 1: growth control rate is greater than 0% and less than 15%)
same,"weeding effect in pre-emergence stage, activity level (growth control rate)",Lolium perenne; 24 g a.i./mu,9
same,"weeding effect in pre-emergence stage, activity level (growth control rate)",Veronica didyma; 6 g a.i./mu,8 (Level 8: growth control rate is greater than or equal to 80% and less than 100%)
same,"weeding effect in pre-emergence stage, activity level (growth control rate)",Veronica didyma; 12 g a.i./mu,9
same,"weeding effect in pre-emergence stage, activity level (growth control rate)",Veronica didyma; 24 g a.i./mu,9
same,pest or weed control at 30 g/ha,weeds; B at 2 g a.i./mu,33.2%
same,pest or weed control at 60 g/ha,weeds; B at 4 g a.i./mu,46.8%
CC(C)N1C(=O)c2ccccc2NS1(=O)=O [bentazon],Control effect (%) of B applied alone (B),Cirsium setosum; B 8 g a.i./mu,12.4%
same,Control effect (%) of B applied alone (B),Cirsium setosum; B 16 g a.i./mu,25.8%
